Laboratory results: patent US7125695B2, “Directed evolution of microorganisms” (Genencor International, Inc., priority 1999, dated 2006)

What was measured:
[1] = biological target: T1, Escherichia blattae 1,3-propanediol dehydrogenase (PDD, dhaT), mutant PDD from evolved strain GEB031 (ATCC PTA-92), SEQ ID NO:4 (Shimwellia blattae, UniProt Q3ZL59, H105L); assay: PDD comparison, 1,3-propanediol dehydrogenase from evolved strain GEB031; format: biochemical, Escherichia blattae GEB031 (ATCC PTA-92); conditions: PDD from evolved strain GEB031, compared with wild type E. blattae
T1 construct: no tag
T1 sequence (Q3ZL59 entry or part of it H105L): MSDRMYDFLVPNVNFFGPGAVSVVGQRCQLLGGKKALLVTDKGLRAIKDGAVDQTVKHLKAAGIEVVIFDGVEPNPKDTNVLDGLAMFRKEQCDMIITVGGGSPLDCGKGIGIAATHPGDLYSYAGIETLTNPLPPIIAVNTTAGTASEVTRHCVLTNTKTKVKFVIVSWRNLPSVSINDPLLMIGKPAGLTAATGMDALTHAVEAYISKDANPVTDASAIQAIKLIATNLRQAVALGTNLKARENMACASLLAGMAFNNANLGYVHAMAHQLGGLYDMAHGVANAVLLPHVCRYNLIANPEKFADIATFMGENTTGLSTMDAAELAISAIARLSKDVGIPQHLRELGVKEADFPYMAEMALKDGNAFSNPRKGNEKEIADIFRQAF
Procedure: (§1) Strains—Wild type ATCC 33429, E. blattae comprising the mutant PDD as described in Example 4 and having ATCC accession number PTA-92.
(§2) Growth—Cells were grown in a complex medium at 30C 500 ml in a 2800 ml fernbach with shaking at 225 rpm for 20 hr. The medium consists of KH2PO4, 5.4 g/L; (NH4)2SO4, 1.2 g/L; MgSO47H2O, 0.4 g/L; yeast extract, 2.0 g/L; tryptone, 2.0 g/L; and glycerol, 9.2 g/L in tap water. The pH was adjusted to 7.1 with KOH before autoclaving (Honda, et al., 1980, J. Bacteriol, 143:1458–1465).
(§3) Extract prep—Cells were harvested by centrifugation with care to avoid anaerobic conditions. Pellets were resuspended in 100 mM Tricine pH 8.2 containing 50 mM KCl and 1 mM DTT. Cells were disrupted by passage through a French pressure cell. Crude extracts were clarified by centrifugation at 20K×g for 20 min followed by 100K×g for 1 hr to yield the high speed supernatant (HSS) fraction.
(§4) Assays—the assay for PDD was performed as described by Johnson, E. A. et al., 1987, J. Bacteriol. 169:2050–2054.
(§5) Partial purification of PDD—HSS was separated on a 16×100 Poros 20HQ column. The buffers were A, 50 mM HEPES, pH 7.4 containing 100 uM MnCl and B, A buffer containing 500 mM KCl. The column was loaded and developed at 10 ml/min. The gradient was 10 CV wash, a linear gradient to 70% B in 10 CV, and 1 CV to 100% B. The activity was detected in the very early fractions of the gradient. […]

[2] = test system: wild-type E. blattae; assay: Viability (plate counts) of wild-type E. blattae during glycerol fermentation with accumulation of 3HPA; format: cell-based, Escherichia blattae ATCC 33429; conditions: anaerobic glycerol fermentation, 30° C., 3HPA accumulated to 50 mM
Procedure: FIG. 5—Glycerol fermentation of E. blattae at pH 7.0. Culture conditions are described in the text. Plate counts were by serial dilution and performed in triplicate on Luria agar plates. Substrate and 0products were measured by HPLC.
The wild-type E. blattae and the evolved E. blattae were subjected to fermentation in the following medium: 75 g glycerol, 5 g K2HPO4.3H2O, 3 g KH2PO4, 2 g (NH4)2SO4, 0.4 g MgSO4.7H2O, 0.2 g CaCl2.2H2O, 4 mg CoCl2.2H2O, 2 g yeast extract, and 1 g peptone per liter water. The pH was maintained with 20% NaOH. Both fermentations were run at 30° C. with a N2 sparge and were inoculated with a stationary grown overnight preculture.
The wild-type E. blattae accumulated 3HPA and stopped growing and metabolizing glycerol. The accumulation of 3HPA was high and reached 50 mM. […] After the culture had consumed all of the glycerol more was added and the culture continued converting glycerol to 1,3-propanediol.

[3] = substrate: OCCCO; assay: PDD kinetics, partially purified 1,3-propanediol dehydrogenase from wild type strain 33429; format: biochemical, Escherichia blattae ATCC 33429; conditions: other: PDD of wild type strain 33429; substrate 1,3-propanediol; 30.0 °C
Procedure: as §1, §2, §3, §4, §5

[4] = substrate: NC(=O)c1ccc[n+]([C@@H]2O[C@H](COP(=O)([O-])OP(=O)(O)OC[C@H]3O[C@@H](n4cnc5c(N)ncnc54)[C@H](O)[C@@H]3O)[C@@H](O)[C@H]2O)c1; assay: as above; format: biochemical, Escherichia blattae ATCC 33429; conditions: other: PDD of wild type strain 33429; cofactor NAD; 30.0 °C
Procedure: as §1, §2, §3, §4, §5

OCCCO [1,3-propanediol]
Km for 1,3-propanediol [1]: higher

O=CCCO [3HPA, 3-hydroxy-propionaldehyde]
toxicity of accumulated 3HPA (plate counts) [2]: toxic

B1: Escherichia blattae 1,3-propanediol dehydrogenase (PDD, dhaT), wild type, strain ATCC 33429 (Shimwellia blattae) (protein)
chain: MSDRMYDFLVPNVNFFGPGAVSVVGQRCQLLGGKKALLVTDKGLRAIKDGAVDQTVKHLKAAGIEVVIFDGVEPNPKDTNVLDGLAMFRKEQCDMIITVGGGSPHDCGKGIGIAATHPGDLYSYAGIETLTNPLPPIIAVNTTAGTASEVTRHCVLTNTKTKVKFVIVSWRNLPSVSINDPLLMIGKPAGLTAATGMDALTHAVEAYISKDANPVTDASAIQAIKLIATNLRQAVALGTNLKARENMACASLLAGMAFNNANLGYVHAMAHQLGGLYDMAHGVANAVLLPHVCRYNLIANPEKFADIATFMGENTTGLSTMDAAELAISAIARLSKDVGIPQHLRELGVKEADFPYMAEMALKDGNAFSNPRKGNEKEIADIFRQAF
notes: no tag
Km [3]: 28 mM
Km [4]: 0.057 mM
